Drawing on US12440496B2, “Natriuretic peptide receptor a agonists useful for the treatment of cardiometabolic diseases, kidney disease and diabetes” (Merck Sharp & Dohme LLC, priority 2019, dated 2025), this text covers EC50 for 17 compounds.

Structures are written as SMILES.

The target of the assay is T1, hNPRA (Homo sapiens, UniProt P16066).
T1 construct: expressed in transfected cells
T1 sequence (P16066 33-1061): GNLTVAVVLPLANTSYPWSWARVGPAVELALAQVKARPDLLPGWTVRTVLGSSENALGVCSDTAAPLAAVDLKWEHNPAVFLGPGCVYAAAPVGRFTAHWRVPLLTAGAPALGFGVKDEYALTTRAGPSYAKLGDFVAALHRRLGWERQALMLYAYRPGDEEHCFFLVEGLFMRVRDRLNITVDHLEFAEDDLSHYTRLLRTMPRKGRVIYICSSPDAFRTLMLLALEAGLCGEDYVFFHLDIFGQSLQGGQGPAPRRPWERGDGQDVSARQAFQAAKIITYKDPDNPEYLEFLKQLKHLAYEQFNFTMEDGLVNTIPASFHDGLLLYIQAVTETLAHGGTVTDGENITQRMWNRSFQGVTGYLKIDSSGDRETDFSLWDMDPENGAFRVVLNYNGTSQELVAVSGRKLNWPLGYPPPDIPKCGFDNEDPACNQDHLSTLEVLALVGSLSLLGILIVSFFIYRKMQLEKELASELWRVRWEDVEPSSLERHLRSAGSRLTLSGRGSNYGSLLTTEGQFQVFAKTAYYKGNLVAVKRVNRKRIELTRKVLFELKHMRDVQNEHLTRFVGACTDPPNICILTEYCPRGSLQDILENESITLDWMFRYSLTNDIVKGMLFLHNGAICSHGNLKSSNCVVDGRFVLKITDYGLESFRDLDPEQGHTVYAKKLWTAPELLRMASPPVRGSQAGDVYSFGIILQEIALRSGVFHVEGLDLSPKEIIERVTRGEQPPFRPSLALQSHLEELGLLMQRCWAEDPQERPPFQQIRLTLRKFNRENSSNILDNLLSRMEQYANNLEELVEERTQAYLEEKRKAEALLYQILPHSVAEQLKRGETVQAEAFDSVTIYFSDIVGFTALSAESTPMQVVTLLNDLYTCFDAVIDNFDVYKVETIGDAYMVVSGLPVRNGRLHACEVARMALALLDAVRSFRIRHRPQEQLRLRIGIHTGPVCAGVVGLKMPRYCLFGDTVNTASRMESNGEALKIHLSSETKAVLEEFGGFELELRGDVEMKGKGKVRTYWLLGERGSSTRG
Put plainly: NPRA Functional Cell Assay (cGMP HTRF, NPRA HEK JumpIn stable cells). The format is cell-based. As to conditions: cGMP production, 1 hour at 37° C., 10-point dose response. In outline:
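cGMP HTRF read-out after 1 hour compound treatment at 37° C. of human NPRA-expressing HEK JumpIn cells, 1500 cells/well, in buffer with phosphodiesterase inhibitors IBMX and RO20 (100 uM each). Signal converted to [cGMP] by calibration curve; EC50s fitted by 4-parameter logistic; 50 nM h-ANP as positive response.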
Background: In TR-FRET formats the signal depends on donor and acceptor labels being close together.
As to `CN(C)S(=O)(=O)Nc1ccc([C@@H](CCN2CC=CCC2)NC(=O)c2nc3cc4c(nc3s2)CC[C@H](C(C)(C)C)C4)cn1` (racemic) [Example 208, rac-(7S)-7-tert-butyl-N-[rac-(1R)-1-[6-(dimethylsulfamoylamino)-3-pyridyl]-3-(1,2,3,6-tetrahydropyridin-1-ium-1-yl)propyl]-5,6,7,8-tetrahydrothiazolo[5,4-b]quinoline-2-carboxamide; 2,2,2-trifluoroacetate], the half-maximal effective concentration (EC50) (as a rule, the concentration at which the effect is half-maximal) turned out to be 712 nM. This counts as sub-micromolar.

As for `CN(CC[C@@H](NC(=O)c1nc2cc3c(nc2s1)CC[C@H](C(C)(C)C)C3)c1ccc(NS(=O)(=O)N(C)C)nc1)CC1(O)CC1` (racemic) [Example 209, (1-hydroxycyclopropyl)methyl-methyl-[rac-(3R)-3-[6-(dimethylsulfamoylamino)-3-pyridyl]-3-[[rac-(7S)-7-tert-butyl-5,6,7,8-tetrahydrothiazolo[5,4-b]quinoline-2-carbonyl]amino]propyl]ammonium; 2,2,2-trifluoroacetate], the response was half-maximal at 735 nM (EC50). On to `COCCN(C)CC[C@@H](NC(=O)c1nc2cc3c(nc2s1)CC[C@H](C(C)(C)C)C3)c1ccc(NS(=O)(=O)N(C)C)nc1` (racemic) [Example 210, 2-methoxyethyl-methyl-[rac-(3R)-3-[6-(dimethylsulfamoylamino)-3-pyridyl]-3-[rac-(7S)-7-tert-butyl-5,6,7,8-tetrahydrothiazolo[5,4-b]quinoline-2-carbonyl]amino]propyl]ammonium; 2,2,2-trifluoroacetate], for which a half-maximal effect (EC50) was put at 764 nM. For `CN(C)S(=O)(=O)Nc1ccc([C@@H](CCN2CC[C@@H](O)C2)NC(=O)c2nc3cc4c(nc3s2)CC[C@H](C(C)(C)C)C4)cn1` (racemic) [Example 211, rac-(7S)-7-tert-butyl-N-[rac-(1R)-1-[6-(dimethylsulfamoylamino)-3-pyridyl]-3-[rac-(3R)-3-hydroxypyrrolidin-1-ium-1-yl]propyl]-5,6,7,8-tetrahydrothiazolo[5,4-b]quinoline-2-carboxamide; 2,2,2-trifluoroacetate] the value was 764 nM. `CC(C)CN(C)CC[C@@H](NC(=O)c1nc2cc3c(nc2s1)CC[C@H](C(C)(C)C)C3)c1ccc(NS(=O)(=O)N(C)C)nc1` (racemic) [Example 212, isobutyl-methyl-[rac-(3R)-3-[6-(dimethylsulfamoylamino)-3-pyridyl]-3-[rac-(7S)-7-tert-butyl-5,6,7,8-tetrahydrothiazolo[5,4-b]quinoline-2-carbonyl]amino]propyl]ammonium; 2,2,2-trifluoroacetate] displayed an EC50 of 986 nM. This EC50 and that of the compound before are within 1.5-fold of each other.

`CN(C)S(=O)(=O)Nc1ccc([C@@H](CCN2CC[C@H]2CO)NC(=O)c2nc3cc4c(nc3s2)CC[C@H](C(C)(C)C)C4)cn1` (racemic) [Example 213, rac-(7S)-7-tert-butyl-N-[rac-(1R)-1-[6-(dimethylsulfamoylamino)-3-pyridyl]-3-[rac-(2S)-2-(hydroxymethyl)azetidin-1-ium-1-yl]propyl]-5,6,7,8-tetrahydrothiazolo[5,4-b]quinoline-2-carboxamide; 2,2,2-trifluoroacetate] yielded an EC50 of 1010 nM. As to `CN(CC[C@@H](NC(=O)c1nc2cc3c(nc2s1)CC[C@H](C(C)(C)C)C3)c1ccc(NS(=O)(=O)N(C)C)nc1)Cc1ccn[nH]1` (racemic) [Example 214, methyl-(1H-pyrazol-5-ylmethyl)-[rac-(3R)-3-[6-(dimethylsulfamoylamino)-3-pyridyl]-3-[rac-(7S)-7-tert-butyl-5,6,7,8-tetrahydrothiazolo[5,4-b]quinoline-2-carbonyl]amino]propyl]ammonium; 2,2,2-trifluoroacetate], the response was half-maximal at 1240 nM (EC50). The EC50 values of the last two compounds are within 1.5-fold of each other.

Regarding `CN(C)S(=O)(=O)Nc1ccc([C@@H](CCN2CCNC(=O)CC2)NC(=O)c2nc3cc4c(nc3s2)CC[C@H](C(C)(C)C)C4)cn1` (racemic) [Example 215, rac-(7S)-7-tert-butyl-N-[rac-(1R)-1-[6-(dimethylsulfamoylamino)-3-pyridyl]-3-(5-oxo-1,4-diazepan-1-ium-1-yl)propyl]-5,6,7,8-tetrahydrothiazolo[5,4-b]quinoline-2-carboxamide; 2,2,2-trifluoroacetate], the concentration for a half-maximal effect (EC50) was 1610 nM. For `CC(C)(C)[C@H]1CCc2nc3sc(C(=O)N[C@H](CCN4CCC(O)CC4)c4ccc(-c5c[nH]c(=O)c(F)c5)cc4)nc3cc2C1` [Example 82, (7S)-7-tert-butyl-N-[(1R)-1-[4-(5-fluoro-6-hydroxy-3-pyridyl)phenyl]-3-(4-hydroxy-1-piperidyl)propyl]-5,6,7,8-tetrahydrothiazolo[5,4-b]quinoline-2-carboxamide] the value was 196 nM.

For `CC(C)(C)[C@H]1CCc2nc3sc(C(=O)N[C@H](CCN4CCC(O)CC4)c4ccc(-n5cncn5)cc4)nc3cc2C1` [Example 84, (7S)-7-tert-butyl-N-[(1R)-3-(4-hydroxy-piperidin-1-ium-1-yl)-1-[4-(1,2,4-triazol-1-yl)phenyl]propyl]-5,6,7,8-tetra-hydrothiazolo[5,4-b] quinoline-2-carboxamide; 2,2,2-trifluoro-acetate], the half-maximal effective concentration (EC50) worked out at 802 nM.

`CC(C)[C@]1(F)CCc2nc3sc(C(=O)N[C@H](CCN4CCC(O)CC4)c4ccc(N5CCOCS5(=O)=O)nc4)nc3cc2C1` [Example 217, (S)-N-((R)-1-(6-(3,3-dioxido-1,3,4-oxathiazinan-4-yl)pyridin-3-yl)-3-(4-hydroxypiperidin-1-yl)propyl)-7-fluoro-7-isopropyl-5,6,7,8-tetrahydrothiazolo[5,4-b]quinoline-2-carboxamide] showed an EC50 of 71 nM. Under `CC1([C@H]2CCc3nc4sc(C(=O)N[C@H](CCN5CCC(O)CC5)c5ccc(N6CC(=O)NC6=O)nc5)nc4cc3C2)CC1` [Example 218, (S)-N-((R)-1-(6-(2,4-dioxoimidazolidin-1-yl)pyridin-3-yl)-3-(4-hydroxypiperidin-1-yl)propyl)-7-(1-methylcyclopropyl)-5,6,7,8-tetrahydrothiazolo[5,4-b]quinoline-2-carboxamide] stands 242 nM; under `CC(C)[C@]1(F)CCc2nc3sc(C(=O)N[C@H](CCN4CCC(O)CC4)c4ccc(N5CC(=O)NC5=O)nc4)nc3cc2C1` [Example 219, (S)-N-((R)-1-(6-(2,4-dioxoimidazolidin-1-yl)pyridin-3-yl)-3-(4-hydroxypiperidin-1-yl)propyl)-7-fluoro-7-isopropyl-5,6,7,8-tetrahydrothiazolo[5,4-b]quinoline-2-carboxamide], 384 nM; under `CC(C)(C)[C@H]1CCc2nc3sc(C(=O)N[C@H](CCN4CCC(O)CC4)c4ccc(N5CC(=O)NC5=O)nc4)nc3cc2C1` [Example 220, (S)-7-(tert-butyl)-N-((R)-1-(6-(2,4-dioxoimidazolidin-1-yl)pyridin-3-yl)-3-(4-hydroxypiperidin-1-yl)propyl)-5,6,7,8-tetrahydrothiazolo[5,4-b]quinoline-2-carboxamide], 277 nM. Under `O=C1CN(c2ccc([C@@H](CCN3CCC(O)CC3)NC(=O)c3nc4cc5c(nc4s3)CC[C@H](C3(C(F)(F)F)CC3)C5)cn2)C(=O)N1` [Example 221, (S)-N-((R)-1-(6-(2,4-dioxoimidazolidin-1-yl)pyridin-3-yl)-3-(4-hydroxypiperidin-1-yl)propyl)-7-(1-(trifluoromethyl)cyclopropyl)-5,6,7,8-tetrahydrothiazolo[5,4-b]quinoline-2-carboxamide] stands 1140 nM; under `CC(C)(C)[C@H]1CCc2nc3sc(C(=O)N[C@H](CCN4CCC(C(=O)O)CC4)c4ccc(N5CC(=O)NC5=O)nc4)nc3cc2C1` [Example 222, 1-((R)-3-((S)-7-(tert-butyl)-5,6,7,8-tetrahydrothiazolo[5,4-b]quinoline-2-carboxamido)-3-(6-(2,4-dioxoimidazolidin-1-yl)pyridin-3-yl)propyl)piperidine-4-carboxylic acid], 626 nM; under `CC(C)(C)[C@H]1CCc2nc3sc(C(=O)N[C@H](CCN4CCC(C(=O)O)CC4)c4ccc(-c5cnc(O)c(F)c5)cc4)nc3cc2C1` [Example 223, 1-((R)-3-((S)-7-(tert-butyl)-5,6,7,8-tetrahydrothiazolo[5,4-b]quinoline-2-carboxamido)-3-(4-(5-fluoro-6-hydroxypyridin-3-yl)phenyl)propyl)piperidine-4-carboxylic acid], 200 nM.
